In patent US20170304400A1, “METHODS FOR PREVENTING FIBROSIS USING CXCR4 AND/OR CXCR7 BINDING AGENTS” (ViCapsys.Inc, priority 2016, published 2017):

Tested on: non-human primate (NHP)
Assay: Intraperitoneal implant of alginate microbeads in non-human primates: surgical inspection, lavage recovery and biopsy histopathology
Assay type: in vivo
Protocol: In the first non-human primate (NHP) study with alginate microbeads, two animals received intraperitoneal implants of ˜400,000 microbeads each of (1.6% calcium LVM) alginate containing either 1 μg/ml of recombinant human CXCL12 (“CXCL12^+”) or not (“CXCL12”). Microbeads were prepared using a vibrational encapsulation method using a 200 μm nozzle. Microbeads were on average 426-427 μm in diameter with an error of the mean of approximately 10-15%. The diameter was measured after 2 hours in culture media. Microbeads swell 30-40% after transfer into some media or after implantation. Median roundness was less than the desirable 0.90, ranging from 0.78 in the CXCL12^− microbeads (FIG. 1) to 0.80 in the CXCL12^+ (FIG. 2), but with a skew in roundness reflecting a small but significant number of non-round beads. Microbeads were delivered in a blinded manner to operators. During the implant, primate 0715 received the CXCL12^− implant; primate 1715 received the CXCL12^+ implant. Both animals were implanted using a minimally invasive technique featuring placement of beads in 30 cc of 300 mOsmolar calcium chloride solution in the intraperitoneal space and explanted surgically. Neither of the procedures was eventful. Both animals appeared healthy during the entire period of four weeks following the implantation procedure. The explant procedure for each animal involved surgical opening of the peritoneal cavity, visual inspection of all regions of the mesentery and abdomen/pelvis for bead position, lavage with 100 cc of N-saline to recover free microbeads and peritoneal fluid, and biopsy of tissues where microbeads appeared to be embedded in the tissue. Evaluation was done at 30, 90, and 180 days. Arrows point to adhesions.

CXCL12: chemokine CXCL12 (also called SDF-1); recombinant human CXCL12 used in the microbeads
adhesions following surgery or explantation of the capsules (CXCL12 applied into the intraperitoneal cavity in alginate capsules): no adhesions
long-term appearance of the peritoneum / surgical adhesions (later timepoints (day 90 and day 180), compared to CXCL12^- NHP): more normal and without surgical adhesions
foreign body responses to embedded microbeads (through 90 days): spare embedded microbeads from foreign body responses
